Laboratory results as given in patent US20070021419A1, “2-Aminophenyl-4-phenylpyrimidines as kinase inhibitors” (Cyclacel Limited, priority 2003, published 2007).

Experiments:
Saos-2 = experiment: 72-h MTT cytotoxicity assay, Saos-2; type: cell-based; conditions: Homo sapiens, read-out: 72-h MTT IC50 Saos-2, Saos-2 cell line
Description: (§1) The compounds from the examples above were subjected to a standard cellular proliferation assay using human tumour cell lines obtained from the ATCC (American Type Culture Collection, 10801 University Boulevard, Manessas, Va. 20110-2209, USA). Standard 72-h MTT (thiazolyl blue; 3-[4,5-dimethylthiazol-2-yl]-2,5-diphenyltetrazolium bromide) assays were performed. In short: cells were seeded into 96-well plates according to doubling time and incubated overnight at 37° C. Test compounds were made up in DMSO and a 1/3 dilution series prepared in 100 μL cell media, added to cells (in triplicates) and incubated for 72 ho at 37° C. MTT was made up as a stock of 5 mg/mL in cell media and filter-sterilised. Media was removed from cells followed by a wash with 200 μL PBS. MTT solution was then added at 20 μL per well and incubated in the dark at 37° C. for 4 h. MTT solution was removed and cells again washed with 200 μL PBS. MTT dye was solubilised with 200 μL per well of DMSO with agitation.

[1] = system: transformed human cell lines (A549, HT29, Saos-2); experiment: 72-h MTT cytotoxicity assay, average of cell lines; type: cell-based; conditions: read-out: 72-h MTT IC50 Average, average of A549, HT29, Saos-2
Description: as §1

A549 = experiment: 72-h MTT cytotoxicity assay, A549; type: cell-based; conditions: Homo sapiens, read-out: 72-h MTT IC50 A549, A549 cell line
Description: as §1

CDK7/cyclin H = CDK7/cyclin H (Homo sapiens, UniProt P50613); experiment: Kinase assay, radioactive phosphate incorporation, CDK7/cyclin H; type: biochemical; conditions: 100 μM ATP, 30° C.; read-out: Kinase inhibition IC50 CDK7/cyclin H
Description: (§2) The compounds from the examples above were investigated for their ability to inhibit the enzymatic activity of various protein kinases. This was achieved by measurement of incorporation of radioactive phosphate from ATP into appropriate polypeptide substrates. Recombinant protein kinases and kinase complexes were produced or obtained commercially. Assays were performed using 96-well plates and appropriate assay buffers (typically 25 mM β-glycerophosphate, 20 mM MOPS, 5 MM EGTA, 1 mM DTT, 1 mM Na3VO3, pH 7.4), into which were added 2-4 μg of active enzyme with appropriate substrates. The reactions were initiated by addition of Mg/ATP mix (15 mM MgCl2+100 μM ATP with 30-50 kBq per well of [γ-^32P]-ATP) and mixtures incubated as required at 30° C. Reactions were stopped on ice, followed by filtration through p81 filterplates or GF/C filterplates (Whatman Polyfiltronics, Kent, UK). After washing 3 times with 75 mM aq orthophosphoric acid, plates were dried, scintillant added and incorporated radioactivity measured in a scintillation counter (TopCount, Packard Instruments, Pangbourne, Berks, UK). Compounds for kinase assay were made up as 10 mM stocks in DMSO and diluted into 10% DMSO in assay buffer.

CDK9/cyclin T1 = CDK9/cyclin T1 (Homo sapiens, UniProt P50750); experiment: Kinase assay, radioactive phosphate incorporation, CDK9/cyclin T1; type: biochemical; conditions: 100 μM ATP, 30° C.; read-out: Kinase inhibition IC50 CDK9/cyclin T1
Description: as §2

HT29 = experiment: 72-h MTT cytotoxicity assay, HT29; type: cell-based; conditions: Homo sapiens, HT-29, read-out: 72-h MTT IC50 HT29, HT29 cell line
Description: as §1

CDK2/cyclin E = CDK2/cyclin E (Homo sapiens, UniProt P24941); experiment: Kinase assay, radioactive phosphate incorporation, CDK2/cyclin E; type: biochemical; conditions: 100 μM ATP, 30° C.; read-out: Kinase inhibition IC50 CDK2/cyclin E
Description: as §2

GSK3β = GSK3β (Homo sapiens, UniProt P49841); experiment: Kinase assay, radioactive phosphate incorporation, GSK3β; type: biochemical; conditions: 100 μM ATP, 30° C.; read-out: Kinase inhibition IC50 GSK3β
Description: as §2

CDK4/cyclin D1 = CDK4/cyclin D1 (Homo sapiens, UniProt P11802); experiment: Kinase assay, radioactive phosphate incorporation, CDK4/cyclin D1; type: biochemical; conditions: 100 μM ATP, 30° C.; read-out: Kinase inhibition IC50 CDK4/cyclin D1
Description: as §2

CDK2/cyclin A = CDK2/cyclin A (Homo sapiens, UniProt P24941); experiment: Kinase assay, radioactive phosphate incorporation, CDK2/cyclin A; type: biochemical; conditions: 100 μM ATP, 30° C.; read-out: Kinase inhibition IC50 CDK2/cyclin A
Description: as §2

Chain of GSK3β (P49841 whole entry, species assumed): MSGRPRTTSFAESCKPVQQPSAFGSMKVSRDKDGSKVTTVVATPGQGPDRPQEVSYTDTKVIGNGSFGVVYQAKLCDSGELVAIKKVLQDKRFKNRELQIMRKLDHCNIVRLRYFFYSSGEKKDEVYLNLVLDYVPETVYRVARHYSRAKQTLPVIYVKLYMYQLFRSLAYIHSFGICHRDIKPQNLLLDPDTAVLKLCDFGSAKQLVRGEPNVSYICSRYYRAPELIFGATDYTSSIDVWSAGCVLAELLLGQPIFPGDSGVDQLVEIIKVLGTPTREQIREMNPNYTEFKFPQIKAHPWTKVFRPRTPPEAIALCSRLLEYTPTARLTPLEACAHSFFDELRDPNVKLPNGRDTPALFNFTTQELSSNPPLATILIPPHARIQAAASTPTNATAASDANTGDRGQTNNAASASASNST
Chain of CDK7/cyclin H (P50613 whole entry, species assumed): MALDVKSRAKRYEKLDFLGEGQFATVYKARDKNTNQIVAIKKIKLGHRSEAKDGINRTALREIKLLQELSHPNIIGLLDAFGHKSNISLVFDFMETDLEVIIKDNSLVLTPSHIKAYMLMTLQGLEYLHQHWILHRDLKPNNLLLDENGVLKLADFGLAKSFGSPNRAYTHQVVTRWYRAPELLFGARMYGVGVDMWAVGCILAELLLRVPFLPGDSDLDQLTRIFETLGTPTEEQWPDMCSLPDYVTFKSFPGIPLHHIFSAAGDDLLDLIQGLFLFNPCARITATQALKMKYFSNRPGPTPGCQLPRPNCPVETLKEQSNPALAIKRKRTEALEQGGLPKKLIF
Chain of CDK7/cyclin H (P51946 whole entry partner, species assumed): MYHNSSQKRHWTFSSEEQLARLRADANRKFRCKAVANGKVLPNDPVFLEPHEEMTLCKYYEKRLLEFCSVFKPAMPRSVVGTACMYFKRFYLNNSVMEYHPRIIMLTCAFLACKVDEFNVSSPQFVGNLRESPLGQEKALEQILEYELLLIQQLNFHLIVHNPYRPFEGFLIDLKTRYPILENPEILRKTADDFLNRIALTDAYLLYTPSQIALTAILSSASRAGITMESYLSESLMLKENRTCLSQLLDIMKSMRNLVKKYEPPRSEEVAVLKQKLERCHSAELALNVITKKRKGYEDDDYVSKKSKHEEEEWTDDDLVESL
Chain of CDK9/cyclin T1 (P50750 whole entry, species assumed): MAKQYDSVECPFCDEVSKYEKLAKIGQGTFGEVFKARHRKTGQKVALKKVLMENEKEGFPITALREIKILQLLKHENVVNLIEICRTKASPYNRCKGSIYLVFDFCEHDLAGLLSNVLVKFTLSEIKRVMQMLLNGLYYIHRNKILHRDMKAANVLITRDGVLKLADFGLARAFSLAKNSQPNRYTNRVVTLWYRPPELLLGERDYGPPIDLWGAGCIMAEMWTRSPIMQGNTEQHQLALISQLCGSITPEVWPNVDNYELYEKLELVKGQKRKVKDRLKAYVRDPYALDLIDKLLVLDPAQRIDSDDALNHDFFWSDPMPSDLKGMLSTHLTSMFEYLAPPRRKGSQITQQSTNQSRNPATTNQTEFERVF
Chain of CDK9/cyclin T1 (O60563 whole entry partner, species assumed): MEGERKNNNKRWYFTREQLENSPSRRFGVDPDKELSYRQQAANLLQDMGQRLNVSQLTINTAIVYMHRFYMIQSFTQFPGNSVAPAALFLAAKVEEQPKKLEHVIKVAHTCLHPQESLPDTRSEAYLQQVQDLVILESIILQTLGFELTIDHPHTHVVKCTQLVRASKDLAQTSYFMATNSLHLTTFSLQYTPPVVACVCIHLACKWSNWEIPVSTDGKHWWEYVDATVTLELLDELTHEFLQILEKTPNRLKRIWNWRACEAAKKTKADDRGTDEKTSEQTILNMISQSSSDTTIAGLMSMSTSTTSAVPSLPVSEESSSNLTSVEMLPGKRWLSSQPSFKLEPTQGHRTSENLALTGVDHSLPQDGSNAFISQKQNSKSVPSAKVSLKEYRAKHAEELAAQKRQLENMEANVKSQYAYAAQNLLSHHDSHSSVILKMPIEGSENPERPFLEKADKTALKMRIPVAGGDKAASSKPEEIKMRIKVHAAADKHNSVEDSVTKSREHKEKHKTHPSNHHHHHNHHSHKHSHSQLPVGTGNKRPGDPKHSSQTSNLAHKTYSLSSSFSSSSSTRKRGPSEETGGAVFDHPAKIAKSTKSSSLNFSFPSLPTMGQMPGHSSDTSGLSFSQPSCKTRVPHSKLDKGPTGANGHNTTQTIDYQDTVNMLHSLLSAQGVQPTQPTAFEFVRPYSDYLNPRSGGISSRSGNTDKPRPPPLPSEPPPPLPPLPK
Chain of CDK4/cyclin D1 (P11802 whole entry, species assumed): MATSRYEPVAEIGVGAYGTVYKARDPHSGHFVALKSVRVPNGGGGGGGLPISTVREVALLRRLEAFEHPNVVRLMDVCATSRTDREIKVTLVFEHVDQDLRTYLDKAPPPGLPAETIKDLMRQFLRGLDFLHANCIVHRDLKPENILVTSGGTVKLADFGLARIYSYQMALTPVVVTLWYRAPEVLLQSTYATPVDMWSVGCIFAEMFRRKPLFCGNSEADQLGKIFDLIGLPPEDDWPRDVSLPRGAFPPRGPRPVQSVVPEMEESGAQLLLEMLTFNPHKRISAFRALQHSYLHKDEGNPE
Chain of CDK4/cyclin D1 (P24385 whole entry partner, species assumed): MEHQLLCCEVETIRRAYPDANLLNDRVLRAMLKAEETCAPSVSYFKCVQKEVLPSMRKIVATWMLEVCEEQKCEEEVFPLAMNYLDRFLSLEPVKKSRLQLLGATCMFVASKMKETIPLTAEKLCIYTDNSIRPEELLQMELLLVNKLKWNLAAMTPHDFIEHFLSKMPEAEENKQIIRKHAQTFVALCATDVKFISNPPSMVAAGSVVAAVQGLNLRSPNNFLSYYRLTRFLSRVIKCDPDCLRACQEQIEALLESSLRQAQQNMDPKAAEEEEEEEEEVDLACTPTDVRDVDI

SMILES | IC50 (Saos-2) [µM] | IC50 [1] [µM] | IC50 (A549) [µM] | IC50 (CDK7/cyclin H) [µM] | IC50 (CDK9/cyclin T1) [µM] | IC50 (HT29) [µM] | IC50 (CDK2/cyclin E) [µM] | IC50 (GSK3β) [µM] | IC50 (CDK4/cyclin D1) [µM] | IC50 (CDK2/cyclin A) [µM]
OCC1CCCCN1Cc1cccc(-c2ccnc(Nc3cccc(O)c3)n2)c1 (stereo not shown) [Compound 103, 3-{4-[3-(2-Hydroxymethyl-piperidin-1-ylmethyl)-phenyl]-pyrimidin-2-ylamino}-phenol] | 5.6 | 6.5 ± 0.8 | 6.9 | 0.64 | 0.14 | 7 |  |  |  | 
c1cc(Cn2cncn2)cc(-c2ccnc(Nc3ccc(N4CCOCC4)cc3)n2)c1 [Compound 32, (4-Morpholin-4-yl-phenyl)-[4-(3-[1,2,4]triazol-1-ylmethyl-phenyl)-pyrimidin-2-yl]-amine] | 40.3 | 22 ± 17.2 | 19.7 | 4 | 0.42 | 6.1 | 4.4 | 0.37 | 2.2 | 
Oc1ccc(Nc2nccc(-c3cccc(Cn4cncn4)c3)n2)cc1 [Compound 33, 4-[4-(3-[1,2,4]triazol-1-ylmethyl-phenyl)-pyrimidin-2-ylamino]-phenol] | 7.4 | 12.8 ± 7 | 10.3 | 1.1 | 0.092 | 20.7 | 0.14 | 0.12 | 9.1 | 2
OCC1CCCCN1Cc1cccc(-c2ccnc(Nc3ccc(N4CCOCC4)cc3)n2)c1 (stereo not shown) [Compound 101, (1-{3-[2-(4-Morpholin-4-yl-phenylamino)-pyrimidin-4-yl]-benzyl}-piperidin-2-yl)-methanol] | 25 | 16.1 ± 9.6 | 17.3 | 1.6 | 2.9 | 6 |  |  |  | 
COc1ccc(Nc2nccc(-c3cccc(Cn4cncn4)c3)n2)cn1 [Compound 50, (6-Methoxy-pyridin-3-yl)-[4-(3-[1,2,4]triazol-1-ylmethyl-phenyl)-pyrimidin-2-yl]-amine] | 33.8 | 20 ± 12 | 14.3 | 0.65 | 0.044 | 11.9 | 1.8 | 0.084 | 9.4 | 
COc1cccc(Nc2nccc(-c3cccc(Cn4cncn4)c3)n2)c1 [Compound 35, (3-Methoxy-phenyl)-[4-(3-[1,2,4]triazol-1-ylmethyl-phenyl)-pyrimidin-2-yl]-amine] | 23.2 | 15.3 ± 7.7 | 15 | 0.58 | 0.069 | 7.7 | 0.92 | 0.1 | 0.57 | 3.2
CN(C)c1ccc(Nc2nccc(-c3cccc(Cn4cncn4)c3)n2)cc1 [Compound 43, N,N-Dimethyl-N′-[4-(3-[1,2,4]triazol-1-ylmethyl-phenyl)-pyrimidin-2-yl]-benzene-1,4-diamine] | 30.9 | 17.9 ± 11.8 | 14.9 | 1.4 | 0.53 | 7.8 | 3.7 | 0.19 | 1.9 | 
COc1ccc(OC)c(-c2ccnc(Nc3cccc([N+](=O)[O-])c3)n2)c1 [Compound 44, [4-(2,5-Dimethoxy-phenyl)-pyrimidin-2-yl]-(3-nitro-phenyl)-amine] | 1 | 1.3 ± 0.3 | 1.5 |  |  | 1.3 | 17 | 0.49 |  | 
O=[N+]([O-])c1cccc(Nc2nccc(-c3cccc(CNCc4ccccc4)c3)n2)c1 [Compound 27, {4-[3-(Benzylamino-methyl)-phenyl]-pyrimidin-2-yl}-(3-nitro-phenyl)-amine] | 43.8 | 20.9 ± 20.3 | 14.1 | 6 | 2 | 4.9 | 0.57 | 0.18 | 16 | 6.5
COc1ccc(-c2ccnc(Nc3ccc(OC)nc3)n2)cc1 [Compound 124, [4-(4-Methoxy-phenyl)-pyrimidin-2-yl]-(6-methoxy-pyridin-3-yl)-amine] |  |  |  |  | 0.02 |  |  | 0.09 | 1.5 | 1.1
N#Cc1cccc(Nc2nccc(-c3cccc(Cn4cncn4)c3)n2)c1 [Compound 36, 3-[4-(3-[1,2,4]triazol-1-ylmethyl-phenyl)-pyrimidin-2-ylamino]-benzonitrile] |  |  |  | 0.32 | 0.009 |  | 0.079 | 0.032 | 4.7 | 3.9
COc1ccc(-c2ccnc(Nc3cccc([N+](=O)[O-])c3)n2)cc1 [Compound 94, [4-(4-Methoxy-phenyl)-pyrimidin-2-yl]-(3-nitro-phenyl)-amine] |  |  |  | 0.99 | 0.02 |  | 0.3 | 0.03 |  | 0.93
COc1ccc(Nc2nccc(-c3cccc(CN4CCN(C)CC4)c3)n2)cn1 [Compound 58, (6-Methoxy-pyridin-3-yl)-{4-[3-(4-methyl-piperazin-1-ylmethyl)-phenyl]-pyrimidin-2-yl}-amine] | 9.6 | 7.4 ± 2 | 7 | 36 | 0.19 | 5.7 |  |  | 11 | 10
O=[N+]([O-])c1cccc(Nc2nccc(-c3ccc(Cl)c(Cn4cncn4)c3)n2)c1 [Compound 47, [4-(4-Chloro-3-[1,2,4]triazol-1-ylmethyl-phenyl)-pyrimidin-2-yl]-(3-nitro-phenyl)-amine] |  |  |  | 20 | 1.3 |  | 1.4 | 0.13 | 28 | 
O=[N+]([O-])c1cccc(Nc2nccc(-c3cccc(Cn4cncn4)c3)n2)c1 [Compound 30, (3-Nitro-phenyl)-[4-(3-[1,2,4]triazol-1-ylmethyl-phenyl)-pyrimidin-2-yl]-amine] | 4.4 | 6.5 ± 1.8 | 8 | 0.57 | 0.002 | 7.1 | 0.04 | 0.019 |  | 
COc1ccc(Nc2nccc(-c3cccc(C#N)c3)n2)cn1 [Compound 51, 3-[2-(6-Methoxy-pyridin-3-ylamino)-pyrimidin-4-yl]-benzonitrile] | 67 | 37.7 ± 28.4 | 35.7 | 28 | 3 | 10.3 | 7 | 0.37 |  | 
O=[N+]([O-])c1cccc(-c2ccnc(Nc3ccc(O)cc3)n2)c1 [Compound 1, 4-[4-(3-Nitro-phenyl)-pyrimidin-2-ylamino]-phenol] | 44.2 | 27.2 ± 15.3 | 14.5 |  |  | 22.9 | 1.6 |  |  | 
COc1ccc(Nc2nccc(-c3cccc(CN4CCCCC4CO)c3)n2)cn1 (stereo not shown) [Compound 102, (1-{3-[2-(6-Methoxy-pyridin-3-ylamino)-pyrimidin-4-yl]-benzyl}-piperidin-2-yl)-methanol] | 23.4 | 17.2 ± 6.2 | 17 | 1.4 | 0.49 | 11.1 |  |  |  | 
COc1ccc(OC)c(-c2ccnc(Nc3ccc(O)cc3)n2)c1 [Compound 45, 4-[4-(2,5-Dimethoxy-phenyl)-pyrimidin-2-ylamino]-phenol] | 17.4 | 17.1 ± 8.9 | 25.9 | 16 | 25 | 8.1 | 5.8 | 3.6 | 28 | 
